Results on 2 compounds are retold here after US10653709B2, “Methods of folding a graft copolymer with dual anticancer drugs and related applications” (priority 2014, dated 2020).

Type in all cases: cell-based
The test system of one test is HeLa. In words: In vitro cytotoxicity, MTT assay. Particulars: Homo sapiens; HeLa (cervix), 48 hours, mean ± SD. As for the experimental part: (§1) In vitro cytotoxicity of CPT, Dox, MB-20 and MB-20/Dox was measured using the 3-(4,5-dimethylthiazol-2-yl)-2,5-diphenyltetrazolium bromide (MTT) assay. Briefly, cancer cells were seeded in a 96-well plate at a density of 5,000 cells per well. After 12 h incubation, a series of drug dilution (1 nM to 300 μM) were added into wells. After 48 h of drug treatment, the cytotoxicity was measured using the MTT assay. To enhance the assay sensitivity, Sorensen's glycine buffer (0.1 M glycine, 0.1 M NaCl adjust pH to 10.5 with 0.1 N NaOH) was added into wells before absorbance assay. See Plumb et al., Cancer Res., 49, 4435-4440 (1989); Tai et al., Mol. Pharm., 8, 901-912 (2011); and Tai et al., Mol. Pharm., 10, 477-487 (2013). The absorbance at wavelength of 570 nm was measured using a microplate reader (Infinite® M200 PRO, Tecan, Mannedorf, Switzerland). The half-maximal inhibitory concentration (IC50) was calculated by fitting a concentration—absorbance curve using the Graphpad Prism 5 software (Graphpad Software Inc., San Diego, Calif., United States of America).

In a further test the test system is MCF-7. In words: In vitro cytotoxicity, MTT assay. As to conditions: Homo sapiens, MCF7; MCF-7 (breast), 48 hours, mean ± SD. As for the experimental part:
as §1
(In general: Formazan colour is commonly taken as a measure of viable cells.)

The test system of another test is MDA-MB-231. Nature of the test: In vitro cytotoxicity, MTT assay. As to conditions: Homo sapiens; MDA-MB-231 (breast), 48 hours, mean ± SD. As for the experimental part: as §1
A further test has as its system NCI-H441. Nature of the test: In vitro cytotoxicity, MTT assay. Particulars: Homo sapiens; NCI-H441 (lung), 48 hours, mean ± SD. As for the experimental part: as §1
The subject of a further test is PC-3. Nature of the test: In vitro cytotoxicity, MTT assay. As to conditions: Homo sapiens; PC-3 (prostate), 48 hours, mean ± SD. The procedure:
as §1

The subject of a further test is A549. In words: In vitro cytotoxicity, MTT assay. As to conditions: Homo sapiens; A549 (lung), 48 hours, mean ± SD. The procedure: as §1
Another test deals with MDA-MB-468. In words: In vitro cytotoxicity, MTT assay. Particulars: Homo sapiens; MDA-MB-468 (breast), 48 hours, mean ± SD. The procedure: as §1
A further test has as its system Hep G2. In words: In vitro cytotoxicity, MTT assay. Particulars: Homo sapiens, HepG2; Hep G2 (liver), 48 hours, mean ± SD. As for the experimental part:
as §1

For another test, the system named is HL-60. In words: In vitro cytotoxicity, CellTiter-Glo Luminescent Cell Viability Assay. Particulars: Homo sapiens, HL-60 (leukemia), suspension cells, mean ± SD.
Test [1] deals with panel of 9 cancer cell lines. In words: In vitro cytotoxicity across the panel. As to conditions: range over the panel, 48 hours; read-out: IC50s across cancer cell lines. As for the experimental part:
as §1

As for `CC[C@@]1(O)C(=O)OCc2c1cc1n(c2=O)Cc2cc3ccccc3nc2-1` [CPT, camptothecin], the IC50 with HeLa was found to be 3300 ± 1500 nM; in the test with MCF-7, 1200 ± 1000 nM; in the test on MDA-MB-231, 600 ± 500 nM; in the test on NCI-H441, 100 ± 200 nM; in the test with PC-3 it was 20 nM; with A549, 300 nM. Also, the IC50 in the test on MDA-MB-468 was 90 ± 90 nM; with Hep G2, 600 ± 1400 nM; in the test on HL-60, 400 ± 1000 nM; in [1] it was 20 to 3300 nM.

For the compound `COc1cccc2c1C(=O)c1c(O)c3c(c(O)c1C2=O)C[C@@](O)(C(=O)CO)C[C@@H]3O[C@H]1C[C@H](N)[C@H](O)[C@H](C)O1` [Dox, doxorubicin], the IC50 was 1000 ± 1700 nM in the test on HeLa; 300 nM with MCF-7; 100 nM in the test on MDA-MB-231; 200 ± 400 nM with NCI-H441; 200 ± 400 nM in the test on PC-3; 500 ± 800 nM with A549. The IC50 in the test on MDA-MB-468 was found to be 100 nM; with Hep G2, 500 ± 1400 nM; with HL-60, 300 nM.
